Source: patent EP4768498A1, “PEPTIDE, DROPLET FORMING KIT, DROPLET FORMING METHOD, HYDROPHOBIC SUBSTANCE CONCENTRATION METHOD, AND PROTEIN FOLDING METHOD” (National University Corporation Tokyo University Of …, priority 2023, dated 2026)
Blank lines part the entries; values can stand above or below the substance they belong to. Positions of bridges follow the written chain, without caps; N, C: chain ends. No end group written: not given here.

How the values were obtained:
[1] = Phase-contrast microscope observation of droplets; type: physicochemical; conditions: 60°C
Method: Phase-contrast microscope observation was carried out using IX-73 manufactured by Olympus Corporation (Tokyo, Japan). A sample was dropped onto a slide glass, and a cover glass was placed over the sample through a silicone spacer having a thickness of 0.2 mm. The sample was observed while incubating at 60°C. The samples were prepared by dissolving FF-ELP4 or LL-ELP4 in 50 mM Tris-HCl (pH: 7.5) containing 0.3 M sodium chloride. FF-ELP4 was dissolved to a final concentration of 1 wt%. LL-ELP4 was dissolved to a final concentration of 5 wt%.
(§1) Phase-contrast microscope observation was carried out using IX-73 manufactured by Olympus Corporation (Tokyo, Japan). A sample in which a cover glass was placed on the peptide solution through a silicone spacer having a thickness of 0.2 mm on a slide glass was observed while incubating at 60°C. The peptide solution was prepared by dissolving LL-ELP4 to 2 wt% and LL-ELP4-SS to 0.7 mM (0.16 wt%) in 50 mM Tris-HCl (pH: 7.5) containing 0.3 M sodium chloride.
as §1, with “LL-ELP4-SS” for “LL-ELP4”, “wt%” for “wt% and LL-ELP4-SS to 0.7 mM (0.16 wt%)”
(§2) A folding test of denatured BPTI was performed in the same manner as in <Folding test of denatured BPTI: LL-ELP4/LL-ELP4-SS mixed solution> described above, except that LL-ELP4-SS was used alone instead of the combination of LL-ELP4 and LL-ELP4-SS. The final concentration of LL-ELP4-SS in the test solution was 0.16 wt%.

[2] = tested on: Reduced and denatured BPTI; test: Evaluation of incorporation of denatured BPTI into droplets; design: species or system Bovine; conditions: for Reduced and denatured BPTI Inside droplets / Reduced and denatured BPTI Outside droplets: BPTI 30 µM, 60°C overnight
Method: (§3) FF-ELP4 or LL-ELP4 was dissolved in 50 mM Tris-HCl (pH: 7.5) containing 0.3 M sodium chloride, and pre-incubated at 60°C for 1 minute. […] The mixture was incubated at 60°C overnight, centrifuged (8,000 rpm, 25°C, 30 seconds) using a high-spin mini centrifuge HSC-12000 manufactured by Taiyo Corporation (Osaka, Japan), and quickly separated into a supernatant and a precipitate (droplets). 400 µL of a 1 M HCl aqueous solution was added to each of the supernatant and the precipitate to stop the reaction. For each of the supernatant and the precipitate, the reduced and denatured BPTI or the native BPTI was quantified by HPLC analysis. The analysis was performed by reverse-phase high-performance liquid chromatography (RP-HPLC) using a Primaide HPLC system (1410 UV detector, 1310 column oven, 1110 pump) manufactured by Hitachi High-Tech Corporation (Tokyo, Japan) and a TSKgel Protein C4-300 column (4.6 mmφ × 150 mm) manufactured by Tosoh Corporation (Tokyo, Japan) at a flow rate of 1.0 mL·min^-1 (Solvent A: water containing 0.05% TFA, Solvent B: acetonitrile containing 0.05% TFA; ratio of Solvent A: linear gradient of 95% at 0 min, 80% at 15 min, and 30% at 115 min).

[3] = tested on: Native BPTI; test: Evaluation of incorporation of native BPTI into droplets; design: species or system Bovine; conditions: BPTI 30 µM, 60°C overnight
Method: as §3

[4] = Transmittance measurement (transition temperature); type: physicochemical; conditions: 2 wt% solution, 50 mM Tris-HCl (pH: 7.5) containing 0.3 M sodium chloride, absorbance at 600 nm
Method: FF-ELP4 or LL-ELP4 was dissolved in 50 mM Tris-HCl (pH: 7.5) containing 0.3 M sodium chloride and incubated at 60°C. LL-ELP4 was dissolved in 50 mM Tris-HCl (pH: 7.5) to a final concentration of 2 wt%. Since FF-ELP4 could not be dissolved to a final concentration of 2 wt%, it was dissolved in 50 mM Tris-HCl (pH: 7.5) to a final concentration of 1 wt%. Transmittance measurement was carried out using an ultraviolet-visible spectrophotometer V-650 manufactured by JASCO Corporation (Tokyo, Japan). For the samples prepared as described above, absorbance at a wavelength of 600 nm was monitored while changing the temperature. A quartz cell (optical path length: 10 mm) of Sansyo Co., Ltd. was used as a measurement cell. […] LL-ELP4-SS was dissolved in 50 mM Tris-HCl (pH: 7.5) containing 0.3 M sodium chloride and incubated at 60°C. LL-ELP4-SS was dissolved in 50 mM Tris-HCl (pH: 7.5) to a final concentration of 2 wt%. Transmittance measurement was carried out using an ultraviolet-visible spectrophotometer V-650 manufactured by JASCO Corporation (Tokyo, Japan). For the samples prepared as described above, absorbance at a wavelength of 600 nm was monitored while changing the temperature. A quartz cell (optical path length: 10 mm) of Sansyo Co., Ltd. was used as a measurement cell.

[5] = tested on: Reduced and denatured BPTI; test: Folding test of denatured BPTI; type: biochemical, Bovine; conditions: LL-ELP4-SS alone 0.16 wt%, no droplets, no centrifugation, BPTI 30 µM, 60°C
Method: LL-ELP4 and LL-ELP4-SS were dissolved in a buffer (50 mM Tris-HCl, 0.3 M NaCl, pH: 7.5) and pre-incubated at 60°C for 3 minutes. […] The mixture was incubated at 60°C, and when 1 minute, 10 minutes, and 60 minutes had elapsed, it was centrifuged (10,000 rpm, 25°C, 10 seconds) using a high-spin mini centrifuge HSC-12000 manufactured by Taiyo Corporation (Osaka, Japan) and quickly separated into a supernatant and a precipitate. To both the supernatant and the precipitate, 1 M aqueous HCl was added to quench the reaction. The samples were analyzed by reverse-phase high-performance liquid chromatography (RP-HPLC) using a Primaide HPLC system (1410 UV detector, 1310 column oven, and 1110 pump) manufactured by Hitachi, Ltd. (Tokyo, Japan) and a TSKgel Protein C4-300 column (4.6 mm i.d. × 150 mm) manufactured by Tosoh Corporation (Tokyo, Japan) at a flow rate of 1.0 mL min-1 (Solvent A: water containing 0.05% TFA; Solvent B: acetonitrile containing 0.05% TFA; linear gradient of Solvent A: 95% at 0 min, 80% at 15 min, and 30% at 115 min).
as §2

- transition temperature [4]: 53 °C
Substance: Ac-LLVPGVGVPGVGVPGVGVPGVG-NH2 [LL-ELP4, LL-(VPGVG)4]
- droplets observed ([1]; 5 wt% solution): droplets of appropriate size were observed
- Reduced and denatured BPTI Inside droplets ([2]; peptide 2 wt%): 91%
- Reduced and denatured BPTI Outside droplets ([2]; peptide 2 wt%): 9%
- Reduced and denatured BPTI Inside droplets ([2]; peptide 5 wt%): > 99%
- Reduced and denatured BPTI Outside droplets ([2]; peptide 5 wt%): < 1%
- aggregation of reduced and denatured BPTI recovered from the droplets ([2]; peptide 5 wt%, redispersed in water): aggregation was suppressed
- Native BPTI Inside droplets ([3]; peptide 2 wt%): 3%
- Native BPTI Outside droplets ([3]; peptide 2 wt%): 97%
- Native BPTI Inside droplets ([3]; peptide 5 wt%): 7%
- Native BPTI Outside droplets ([3]; peptide 5 wt%): 93%

Substance: LL-(VPGVG)2-CGHC-(VPGVG)2 (LLVPGVGVPGVGCGHCVPGVGVPGVG; disulfide 13-16 (inferred)) [LL-ELP4-SS]
- droplet formation ([1]; 0.16 wt% solution in the folding test): droplets were not formed
- droplets observed ([1]; 2 wt% solution): Droplets of appropriate size were observed
- added reduced and denatured BPTI detected as native structural BPTI [5]: ≥ 99%
- transition temperature [4]: 48 °C
